Ki data for 1 compound are collected here from patent US10370336B2, “Phenyl-cyanoquinolinone PDE9 inhibitors” (Merck Sharp & Dohme Corp., priority 2015, dated 2019).

This assay addresses human PDE9 enzyme (PDE9A2) (Homo sapiens (Human), UniProt O76083). The settings on record: read-out: PDE9 IMAP Ki; IMAP FP assay, FAM-cGMP substrate 50 nM, apparent inhibition constant.

human PDE9 enzyme (PDE9A2), sequence (O76083 other isoform, or with tags, fused parts or gaps): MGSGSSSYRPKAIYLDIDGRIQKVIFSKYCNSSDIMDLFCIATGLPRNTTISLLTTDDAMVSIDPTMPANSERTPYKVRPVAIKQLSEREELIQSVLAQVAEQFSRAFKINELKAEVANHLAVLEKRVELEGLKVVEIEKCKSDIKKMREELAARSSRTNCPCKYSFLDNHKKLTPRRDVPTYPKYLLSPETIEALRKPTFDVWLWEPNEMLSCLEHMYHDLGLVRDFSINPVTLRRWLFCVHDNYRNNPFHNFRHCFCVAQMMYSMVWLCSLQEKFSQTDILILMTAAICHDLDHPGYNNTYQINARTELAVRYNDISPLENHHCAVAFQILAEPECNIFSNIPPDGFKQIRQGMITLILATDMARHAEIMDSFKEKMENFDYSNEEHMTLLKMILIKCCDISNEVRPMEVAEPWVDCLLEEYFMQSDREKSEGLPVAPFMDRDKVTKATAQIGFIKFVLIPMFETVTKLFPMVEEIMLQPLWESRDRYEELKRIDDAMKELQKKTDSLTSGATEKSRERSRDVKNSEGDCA
From the text: Dose-inhibition profiles for each compound were characterized by fitting the mP data to a four-parameter equation given below.

Turning to `Cc1ccc(-c2c(C#N)c(=O)[nH]c3ccccc23)cc1` [Example 1-9, 2-oxo-4-(p-tolyl)-1H-quinoline-3-carbonitrile], the Ki was found to be 8.9 nM.
